The text below walks through data of patent publication US5572996A, “In vivo pharmacokinetics of photosensitive drugs and method” (PDT Systems, Inc., priority 1996, dated 1996).

Details of series [1]: species or system Spraig Dawley Rats. Particulars: rat, in vivo. How it is done:
(§1) Twenty-four hours prior to measurement the animals were injected either with a control solution, (carrier vehicle), or various concentrations of the exogenous chromophore, tin ethyl etiopurpurin, (SnET2). SnET2 is a synthetic chlorophyll analogue used in photodynamic light therapy (PDT) that has a relatively weak fluorescence emission, (Quantum yield of 0.01), an emission peak at 670 nm, and a maximum absorption/excitation at 440 nm. At measurement time the animals where anesthetized and then surgically opened to allow measurement of the fluorescence in various tissues. The measurement system used had the following characteristics:
(a) A single fiber was used to deliver excitation light;
(b) Excitation light was derived from a HeCd laser at 442 nm, […] total power delivered to the tissue;
(c) The excitation light was delivered to the target tissue by means of a fiber optic. Fluorescent light emitted by both exogenous and endogenous chromophores in the target tissue was conducted back to the measuring instrument by means of a bundle of smaller optical fibers surrounding the fiber delivering excitation light to the target tissue. Some of these fiber where directed to one PMT (photomultiplier tube) detector filtered for a 570 nm endogenous autofluorescence while the others (12 fibers) were coupled to a PMT filtered at 670 nm for detecting the SnET2 emission;
(d) Autoranging of the gains of the PMTs over five decades;
(e) A display of the 570 (Autofluorescence), 670 (SnET2),signals and the ratio of the two;
(f) An internal reference standard for setting the gain of each PMT prior to each use;
(g) Computer data storage.
The system operates by a foot paddle or a panel button. Activating either one causes the 23 system to take a reading in 1.6 seconds and store it in the display and computer memory. Prior to each use the illuminating probe excitation output is set to 1 mw but this is not necessary due to the ratioing concept.
(§2) A small correction can be made for the endogenous autofluorescence by subtracting the control values from the drug containing tissue to give a NET RATIO. This method permits compensation for background tissue difference while permitting accurate and sensitive measurement of the exogenous chromophore presence in the tissue. Chemical extraction of the SnET2 from the tissue allows correlation of the in-vivo drug concentration to the Ratio signal as shown in Table 3 below. Such a correlation would not be accurate or easily done with out using the Ratio concept.

Series [2] relates to skin cancers. Briefly: In vivo fluorescence kinetics in a human subject with skin cancers (tumor and normal sites). Particulars: 0.4 mg/kg SnET2, human subject. How it is done:
(§3) FIG. 1 presents data from an actual human subject injected with SnET2 for the treatment of a number of skin cancers. A number of normal i.e. control sites, and tumor sites were measured prior to the SnET2 injection, (0.4 mg/kg) and at various times post injection. […] In summary, it is clear from the data provided that the method employing the measurement of the intensity of the exogenous chromophore fluorescence to the autofluorescence of a tissue provide a more accurate means for measuring the pharmacokinetics of an exogenous fluorescing chromophore in vivo. The finding is novel and to the inventor's knowledge has not been taught or acknowledged by others either in a patent or publication. Though the method was discovered and developed during the performance of work associated with photodynamic diagnosis and therapy, the utilization of the present method extends to other types of phototherapy. Any application requiring the in vivo monitoring of rate of change of concentration of a fluorescence chromophore in a tissue could use the present method. For example the in vivo pharmacokinetics of fluorescence labeled monoclonal antibodies for diagnostic or therapeutic application, and certain fluorescent antibiotics such as tetracycline, detection of highly proliferating atherosclerosis, among others. […]

On the set-up of series [3]: species or system Spraig Dawley Rats. The settings on record: rat, in vivo, 24 h. How it is done:
as §1, §2

Series [4] deals with skin cancers. Briefly: Photodynamic therapeutic response to red light in a human subject. Type of series: in vivo. Particulars: 0.4 mg/kg SnET2, human subject. The procedure:
as §3

Read-outs that look alike come from different tables or passages of the source.

In the case of `CCOC(=O)C1=Cc2c3nc(cc4nc(cc5[n-]c(cc6[n-]c2c(C)c6CC)c(C)c5CC)C(C)=C4CC)[C@@H](C)[C@]13CC.[Cl-].[Cl-].[Sn]` (racemic) [SnET2, tin ethyl etiopurpurin], the entries for the “Net Ratio, kidney” value in series [1] (1 mg/kg), in series [1] (2 mg/kg) and in series [1] (4 mg/kg) were 1.73 ± 0.42, 2.48 ± 0.14 and 4.24 ± 0.90, respectively. Moreover, the “Net Ratio, liver” value is listed as 17.8 ± 2.15 in series [1] (1 mg/kg), 30.0 ± 5.5 in series [1] (2 mg/kg) and 50.1 ± 12.8 in series [1] (4 mg/kg). Moreover, the “drug uptake in tumors versus control/normal sites (Net Ratio, FIG. 3)” value in series [2] is on record as “the tumors take up the drug significantly more than the control/normal sites”. The “SnET2 fluorescence at 670 nm with site and time (FIG. 2)” value in series [2] (unratioed signal) was “greatly varies with site and time”. Moreover, the “Extraction (tissue drug concentration), kidney” value in series [3] (1 mg/kg) amounted to 1.87 ± 0.14 µg/g; in series [3] (2 mg/kg), 3.56 ± 0.11 µg/g; in series [3] (4 mg/kg), 5.49 ± 0.54 µg/g. Moreover, the figures for the “Extraction (tissue drug concentration), liver” value in series [3] (1 mg/kg), in series [3] (2 mg/kg) and in series [3] (4 mg/kg) were 13.2 ± 0.91 µg/g, 27.2 ± 2.5 µg/g and 59.2 ± 8.9 µg/g, respectively. Further, the “response to red light exposure” value in series [4] is on record as “gave a response correlating to the magnitude of the ratio signal”.
